The values that follow come from patent publication US8008354B2, “Death receptor sensitizing compounds and methods of use therefor” (Burnham Institute for Medical Research, priority 2006, dated 2011).

Holding throughout (format): cell-based, human
Assay [1] has as its system FAS or TRAIL receptors. The experiment in a line: Surface expression of FAS or TRAIL receptors by flow cytometry. The note with it: PPC-1 cells, flow cytometry (data not shown). The source says:
Furthermore, since these compounds sensitize to both FAS and TRAIL, they presumably act distal to death receptors.
On the technique in general: Flow cytometry measures light scatter and fluorescence of single cells or particles in a stream.

The test system of assay [2] is FLIP mRNA. The experiment in a line: FLIP mRNA by quantitative RT-PCR. The note with it: for expression of FLIP mRNA: Example 1, responding and non-responding cell lines, 24 hours, long isoform normalized for GAPDH. Here is the method: FIG. 7. Effect of FAS-sensitizing compounds on levels of FLIP protein and DISC activation. (A) PPC-1 cells (2×10^5) were seeded into 35 mm plates and treated the next day with various FAS-sensitizing compounds (30 μM), with (+) or without (−) CH-11 antibody (100 ng/mL). As a positive control, cells were treated with CDDO (5 μM). Cell lysates were prepared 24 hours later, normalized for total protein content, and analyzed by SDS-PAGE/immunoblotting using antibodies specific for FLIP or a-tubulin. (B) PPC-1, OVCAR-3, T47D, MDA-MB-468 and DU 145 cells (2×10^5) were seeded into 35 mm plates and treated the next day with 5809354 (40 μM). Cell lysates were prepared 24 hours after treatment, normalized for total protein and analyzed by SDS-PAGE/immunoblotting using antibodies specific for FLIP or β-actin. (C) PPC-1, OVCAR-3, T47D, and DU 145 cells (2×10^5) were seeded into 35 mm plates and treated the next day with 5809354 (40 μM) (black bars) or buffer control (white bars). mRNA was extracted 24 hours after treatment. Levels of the long isoform of FLIP and GAPDH were detected by quantitative RT-PCR. Levels of FLIP were normalized for GAPDH expression and expressed as a mean fold change+SD over buffer treated cells. (D) PPC-1 cells (2×10^5) were seeded into 35 mm plates and treated the next day with various FAS-sensitizing compounds (30 μM) with (+) or without (−) CH-11 (100 ng/mL). Cell lysates were prepared 24 hours after treatment, normalized for total protein, and analyzed by SDS-PAGE/immunoblotting using antibodies specific for caspase-8 and β-actin.
FIG. 13. Small molecule down-regulation of FLIP sensitizes prostate cancer cells to anoikis. (A) PPC-1 cells were seeded overnight in adherent conditions and then treated with increasing concentrations of 5809354 for 16 hours. After incubation, cells were harvested. Total cellular RNA was extracted and mRNA levels of the long isoform of FLIP (FLIPL), the short isoform of FLIP (FLIPS), or rRNA levels of 18S were detected by real-time RT-PCR. Data were normalized using the ΔΔCT method and expressed as the mean±SEM percent of […] expression relative to untreated controls. (B) PPC-1 cells were cultured and treated as in panel A. Total cellular protein was isolated and analyzed by SDS-PAGE immunoblotting using anti-FLIP and anti-Actin antibodies. […] Thirty hours after incubation, cell viability was determined using the MTS assay. […] After incubation, apoptosis was measured by flow cytometry to detect cell surface annexin V expression and PI. […] (E) Cells were harvested, fixed, stained with DAPI, and nuclear morphology analyzed by fluorescence microscopy. […] One week later, cells were stained with methylene blue and the number of colonies counted. […]
Quantitative RT-PCR. […]

Assay [3] has as its system PPC-1 cells. The experiment in a line: Annexin V apoptosis of PPC-1 cells with CH-11 and sensitizer, with or without zVAD-fmk. As to conditions: zVAD-fmk 100 μM, annexin V staining. The protocol:
FIG. 6. Characterization of the mechanism of FAS-sensitizing compounds. (A) PPC-1 cells (1×10^5) were seeded in 24 well plates. The next day, cells were treated with CH-11 antibody (100 ng/mL) and 30 μM 6094911, 5809354, or 5569100 with (square) or without (diamond) caspase inhibitor z-VAD-fmk (100 μM). Apoptosis was measured 24 hours later by Annexin V staining, expressing data as percentage of Annexin V-negative (“viable”) cells (mean+SD) (n=3). (B) PPC-1 cells (2×10^5) were seeded in 6 well plates and co-transfected with plasmids encoding Bcl-XL, Crm A, or empty vector along with a green fluorescent protein (GFP) encoding plasmid to identify successfully transfected cells. After 48 hours, cells were treated with CH-11 antibody (100 ng/mL) and 6094911 (30 μM), 5809354 (30 μM), or 5569100 (15 μM). As a positive control, transfected cells were treated with staurosporine (0.5 μM) (STS). Apoptotic cells were identified by morphological assessment of the GFP-positive cells, and data were expressed as the percentage of nonapoptotic (“viable”) cells (mean+SD) (n=3).
Cell death assays. Cell viability was measured by MTT and MTS assays, essentially as described in Schimmer et al. (2004). Absorbance readings were plotted against a standard curve to derive the corresponding cell number, and cell viability was expressed as a percentage relative to untreated cells. Apoptosis was measured by flow cytometric analysis of Annexin V surface expression after staining cells with FITC-anti-Annexin V and propidium iodide (PI) (Biovision, Mountain View, Calif.), as described in Pederson et al. (2002).
To further assess the mechanism of the 8 compounds that selectively modulated tumor sensitivity to extrinsic pathway stimuli, the effects of benzoyl-Val-Ala-Asp-fluoromethylketone (zVAD-fmk), a broad-spectrum irreversible inhibitor of caspase-family proteases (Enzyme Systems, Dublin, Calif.) was tested. Accordingly, PPC-1 cells were treated with CH-11 and sensitizers such as 6094911, 5809354, and 5569100 with and without zVAD-fmk (100 μM) for […]. Apoptosis was then measured by annexin V staining.

Structures can show the parent of a compound that is named as a salt.

In the case of `CC(=O)CC(=O)Nc1ccc(Cl)c(C(F)(F)F)c1` [compound 6094911, N-[4-chloro-3-(trifluoromethyl)phenyl]-3-oxobutanamide], the “surface expression of FAS or TRAIL receptors” value in assay [1] is listed as “did not change”. In assay [2], the “expression of FLIP mRNA” value was “did not reduce FLIP mRNA”. Moreover, the “effect of zVAD-fmk on sensitization to CH-11” value in assay [3] was “zVAD-fmk blocked sensitization to CH-11”.
For `CCn1c(=N)n(CC(=O)c2cc(C(C)(C)C)c(O)c(C(C)(C)C)c2)c2ccccc21` [compound 5569100, 1-(3,5-di-tert-butyl-4-hydroxyphenyl)-2-(3-ethyl-2-imino-2,3-dihydro-1H-benzo[d]imidazol-1-yl)ethanone hydrobromide], in that order: “did not change”, “did not reduce FLIP mRNA” and “zVAD-fmk blocked sensitization to CH-11”.
With “4-(4-chloro-2-methylphenoxy)-N-hydroxybutanamide [compound 5809354]”, the “surface expression of FAS or TRAIL receptors” value in assay [1] is listed as “did not change”. In assay [2], the “expression of FLIP mRNA” value was “reduced expression of FLIP mRNA”. In addition, the “FLIP mRNA expression” value in assay [2] (Example 2, PPC-1 cells, increasing concentrations, 16 hours) was “concentration-dependent decrease”. The “effect of zVAD-fmk on sensitization to CH-11” value in assay [3] is “zVAD-fmk blocked sensitization to CH-11”.
